Tests used:
[1] = human metabolic stability half-life assay; settings: microsomes, human liver microsomes
Experimental: Metabolic Stability Half-Life Panel
Incubation with Liver Microsomes

[2] = tested on: human Notch 3; assay: Notch-CBF1 Transactivation Assay (Notch 3); assay type: cell-based; settings: read-out: Notch 3 IC50; Notch-CBF1 transactivation luciferase assay in transfected HeLa cells; some values are an average of N experiments
Source text: (§1) Notch-CBF1 Transactivation Assay
(§2) The Notch-CBF1 (C-promoter binding factor I) cell based transactivation assay is based on the ability of the released Notch intracellular domain fragments (NICDs) to function as transcription factors in conjunction with CBF1 and other nuclear factors. Luciferase assays were used to measure the antagonism of Notch-CBF1 transcriptional activity. HeLa cervical cancer cells are transiently co-transfected with pCDNA3.1/Hygro plasmids containing truncated Notch 1, Notch 2, Notch 3, or Notch 4 receptors and a PGL3 luciferase reporter vector containing 4 copies of CBF1 binding site. The cells were then tested for Notch-CBF1 activity in the absence or presence of test compounds. HeLa cells, maintained in DMEM (high glucose with HEPES), 1× glutamine/penicillin/streptomycin and 10% Fetal Bovine serum, were transiently transfected in a T175 Flask (4.5×10^6 cells/flask) using the Monster Transfection Kit (Minis #MIR2906) according to manufacturers specifications. Table 13 denotes respective DNA quantity for the transfections.
(§3) Assay media (5 μL) containing test compounds in final concentrations ranging from 5 μM to 8.4×10^−5 μM (3 fold serial dilutions) were added to the cells and the cell plates were then incubated for 18 hours at 37° C. and 5% CO2. Control wells contained DMSO vehicle (total counts) or 0.5 μM of an in-house small molecule inhibitor (background counts). Duplicates were used for each sample. Luciferase activity was measured after a 20-minute incubation with 50 μl STEADY-GLO® luciferase reagents according to manufacturer's specifications (Promega, Cat. #E2550) and analyzed by Envision plate reader (PerkinElmer, Boston, Mass.).
(§4) The antagonist effect of compounds was expressed as 100×[1−(average sample−average background)/(average total−average background)] where sample is the luciferase activity in the presence of test compound, background is equal to the luciferase activity in the presence of the small molecule inhibitor control and the total is signal induced in DMSO wells.

[3] = tested on: human Notch 1; assay: Notch-CBF1 Transactivation Assay (Notch 1); assay type: cell-based; settings: read-out: Notch 1 IC50; Notch-CBF1 transactivation luciferase assay in transfected HeLa cells; some values are an average of N experiments
Source text: as §1, §2, §3, §4

[4] = pH 7.4, CYP-mediated metabolic stability half life, NADPH-dependent
[5] = pH 7.4, HLM (t1/2, min), CYP-mediated (NADPH-dependent), 0.5 μM compound, 45 min time course, some values are an average of N experiments

Structure (SMILES) | half-life at 0.5 µM [1, 4] | half-life at 0.5 µM [1, 5] | IC50 [2] | IC50 [3]
NC(=O)[C@@H](CC1CC1)[C@@H](CCC(F)(F)F)C(=O)N[C@H]1N=C(c2ccc(Cl)cc2)c2cccc(Cl)c2NC1=O [Example 27, (2R,3S)—N-((3S)-9-Chloro-5-(4-chlorophenyl)-2-oxo-2,3-dihydro-1H-1,4-benzodiazepin-3-yl)-3-(cyclopropylmethyl)-2-(3,3,3-trifluoropropyl)succinamide] | ≥ 30 min | 81 min | 1.6 nM | 4.6 nM
CCC[C@H](C(N)=O)[C@@H](CCC(F)(F)F)C(=O)N[C@H]1N=C(c2ccc(Cl)cc2)c2cccc(Cl)c2NC1=O [Example 28, (2R,3S)—N-((3S)-9-Chloro-5-(4-chlorophenyl)-2-oxo-2,3-dihydro-1H-1,4-benzodiazepin-3-yl)-3-propyl-2-(3,3,3-trifluoropropyl)succinamide] | ≥ 30 min | 39 min | 1.7 nM | 1.7 nM
COc1ccc2c(c1F)NC(=O)[C@@H](NC(=O)[C@H](CCC(F)(F)F)[C@H](CC1CC1)C(N)=O)N=C2c1ccccc1 [Example 29, (2R,3S)-3-(Cyclopropylmethyl)-N-((3S)-9-fluoro-8-methoxy-2-oxo-5-phenyl-2,3-dihydro-1H-1,4-benzodiazepin-3-yl)-2-(3,3,3-trifluoropropyl)succinamide] | ≥ 30 min | 99 min | 7.1 nM | 3.1 nM
Cc1cccc(C2=N[C@H](NC(=O)[C@H](CCC(F)(F)F)[C@H](CC3CC3)C(N)=O)C(=O)Nc3c(Cl)cccc32)c1 [Example 30, (2R,3S)—N-((3S)-9-Chloro-5-(3-methylphenyl)-2-oxo-2,3-dihydro-1H-1,4-benzodiazepin-3-yl)-3-(cyclopropylmethyl)-2-(3,3,3-trifluoropropyl)succinamide] | ≥ 30 min | 74 min | 5.2 nM | 2.5 nM
COc1cccc2c1NC(=O)[C@@H](NC(=O)[C@H](CCC(F)(F)F)[C@H](CC1CC1)C(N)=O)N=C2c1cccc(C)c1 [Example 31, (2R,3S)-3-(Cyclopropylmethyl)-N-((3S)-9-methoxy-5-(3-methylphenyl)-2-oxo-2,3-dihydro-1H-1,4-benzodiazepin-3-yl)-2-(3,3,3-trifluoropropyl)succinamide] | ≥ 30 min | 52 min | 7.9 nM | 5.6 nM
CCC[C@H](C(N)=O)[C@@H](CCC(F)(F)F)C(=O)N[C@H]1N=C(c2ccccc2)c2cccc(C#N)c2NC1=O [Example 32, (2R,3S)—N-((3S)-9-Cyano-2-oxo-5-phenyl-2,3-dihydro-1H-1,4-benzodiazepin-3-yl)-3-propyl-2-(3,3,3-trifluoropropyl)succinamide] | ≥ 30 min | 55 min | 19.7 nM | 8.3 nM
COc1cccc2c1NC(=O)[C@@H](NC(=O)[C@H](CCC(F)(F)F)[C@H](CC1(C)CC1)C(N)=O)N=C2c1ccccc1 [Example 33, (2R,3S)—N-((3S)-9-Methoxy-2-oxo-5-phenyl-2,3-dihydro-1H-1,4-benzodiazepin-3-yl)-3-((1-methylcyclopropyl)methyl)-2-(3,3,3-trifluoropropyl)succinamide] | ≥ 30 min | 47 min | 5.9 nM | 3.8 nM
NC(=O)[C@@H](CC1CC1)[C@@H](CCC(F)(F)F)C(=O)N[C@H]1N=C(c2ccccc2)c2ccc(Cl)c(Cl)c2NC1=O [Example 34, (2R,3S)-3-(Cyclopropylmethyl)-N-((3S)-8,9-dichloro-2-oxo-5-phenyl-2,3-dihydro-1H-1,4-benzodiazepin-3-yl)-2-(3,3,3-trifluoropropyl)succinamide] | ≥ 30 min | > 120 min | 7.4 nM | 4.7 nM

Reference: patent publication US9242941B2, “Alkyl, fluoroalkyl-1,4-benzodiazepinone compounds” (BRISTOL-MYERS SQUIBB COMPANY, priority 2012, dated 2016)
